IC50 and Ki data for 8 molecules are collected here from patent US7514438B2, “Melanin concentrating hormone receptor antagonist” (Amgen, Inc., priority 2003, dated 2009).

Like-named read-outs stand apart in the source and are kept apart here.

The target in experiment [1] is T1, rat MCH 1 receptor (rMCH1R) (Rattus norvegicus, UniProt P97639).
T1 construct: expressed in transfected cells; host or cells: HEK 293 (membranes)
The experiment in a line: 125I-MCH ligand binding assay, rMCH. The note with it: HEK 293 membranes, 0.2 nM 125I native-MCH, read-out: IC50 in the rMCH binding assay. An outline of the steps: (§1)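 HEK293 membranes expressing rat or human MCH1R (100 µg tissue) were incubated for 90 min at 30 °C with 0.2 nM 125I-native-MCH and test compound in HEPES/MgCl2/BSA buffer with protease inhibitors, pH 7.4. Non-specific binding used 1 µM cold MCH. Filter-bound radioactivity gave IC50 by nonlinear regression.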

The target of experiment [2] is T2, rat MCH1 receptor (Rattus norvegicus, UniProt P97639). The experiment in a line: rMCH FLIPR calcium mobilization assay (CHOK1-Gqi cells). It counts as cell-based. Set-up: expressed in transfected cells; host or cells: CHOK1-Gqi. The note with it: CHOK1-Gqi cells, rat MCH1 receptor; 100 μM or less list; read-out: Ki in the rMCH FLIPR assay. The method, then:
Pharmacological analyses were conducted using either a HT-PS100 device (Axiom Biotechnologies, San Diego, Calif.), which provides high-resolution dose-response fluorometric measurements of [Ca^++]i mobilization, or using a FLIPR® device (Molecular Devices, Sunnyvale, Calif.).
Materials: Pharmacological analysis was conducted using a FLIPR® device (Molecular Devices, Sunnyvale, Calif.). CHOK1-Gqi cells were stably transfected with the rat MCH1 receptor and maintained under G418 antibiotic pressure. FLIPR® assay buffer consisted of phenol red-free DMEM+2.5 mM probenecid. […]. Test compounds were prepared as 10 mM stocks in 100% DMSO and diluted to a top end working concentration of 10 μM in 96 well black, flat bottom, collagen-I coated plates (Becton Dickinson, Bedford, Mass.).
Methods: CHOK1-Gqi cells stably expressing MCH1R were maintained in Dulbeco's modified Eagle's medium (GIBCO/Life Technologies, Rockville, Md.) supplemented with 2 mM glutamine and 10% dialyzed fetal bovine serum (HyCLone, Logan, Utah) at 37° C., 5% CO2. Cells were harvested by 10′ treatment with Versene (GIBCO/Life Technologies) followed by trituration, washing twice with cold (4° C.) hybridoma medium (Serum/Protein free, with L-glutamine, sodium bicarbonate, MOPS buffer) (Sigma-Aldrich Corp, St. Louis, Mo.) and replated onto 96 well black, flat bottom, collagen-I coated plates to a density of 10,000 cells/well. The cells were then loaded with the fluorescent calcium indicator Fura-2 (Molecular Probes, Eugene, Oreg.) at 1.6 μM for 60′ at room temperature. The loaded cells were then washed twice with 90 μl/well of wash buffer (1×HBSS, 20 mM HEPES, 2.5 mM probenecid).
Receptor-stimulated intracellular calcium responses were detected using FLIPR® by monitoring increases in the Fura-2 fluorescence response.
Test compounds were screened for MCH1R activity in the FLIPR® for both agonist and antagonist action. Agonist mode challenges were conducted at a maximum gradient concentration of 1 μM. Antagonist activity was tested by 10 min pre-incubation of cells at a compound concentration of defined to be 300× the EC50 of MCH (typically 1 μM), with subsequent introduction of MCH at a concentration 5-fold of EC50 as determined in preliminary experiments. […].
Several fixed concentrations of antagonist compounds were prepared in 10-fold increments, and presented to the cells in a gradient of increasing MCH concentration. Values for compound pA2 were calculated by linear regression of MCH EC50s as a function of antagonist concentration.

Another experiment addresses T3, human MCH receptor (Homo sapiens, UniProt Q99705).
T3 construct: expressed in transfected cells
The experiment in a line: hMCH FLIPR calcium mobilization assay. It counts as cell-based. The note with it: read-out: Ki in the hMCH FLIPR assay.

Experiment [3] has as its target T4, human MCH 1 receptor (hMCH1R) (Homo sapiens, UniProt Q99705).
T4 construct: expressed in transfected cells; host or cells: HEK 293 (membranes)
The experiment in a line: 125I-MCH ligand binding assay, hMCH. The note with it: HEK 293 membranes, 0.2 nM 125I native-MCH, read-out: IC50 in the hMCH binding assay. An outline of the steps:
as §1

The target of experiment [4] is T2, rat MCH1 receptor. The experiment in a line: HT-PS100 calcium mobilization functional assay. It counts as cell-based. Further details: expressed in transfected cells. The note with it: HEK 293 cells stably transfected with rat MCH1 receptor; 100 nM or less list; read-out: Ki in the HT-PS100 assay. A general note: A change in cytosolic calcium serves as a functional read-out for many receptors and channels.

T2 sequence (P97639 whole entry): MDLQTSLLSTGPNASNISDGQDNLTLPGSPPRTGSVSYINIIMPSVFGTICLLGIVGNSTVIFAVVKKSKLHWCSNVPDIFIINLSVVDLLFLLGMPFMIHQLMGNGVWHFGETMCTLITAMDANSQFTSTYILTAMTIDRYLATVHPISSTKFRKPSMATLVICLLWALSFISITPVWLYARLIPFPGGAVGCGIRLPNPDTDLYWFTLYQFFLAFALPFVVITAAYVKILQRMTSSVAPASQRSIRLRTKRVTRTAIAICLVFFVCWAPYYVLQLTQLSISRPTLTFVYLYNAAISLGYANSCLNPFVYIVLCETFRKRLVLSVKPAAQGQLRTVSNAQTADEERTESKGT
T1 sequence (P97639 whole entry): as above
T3 sequence (Q99705 whole entry): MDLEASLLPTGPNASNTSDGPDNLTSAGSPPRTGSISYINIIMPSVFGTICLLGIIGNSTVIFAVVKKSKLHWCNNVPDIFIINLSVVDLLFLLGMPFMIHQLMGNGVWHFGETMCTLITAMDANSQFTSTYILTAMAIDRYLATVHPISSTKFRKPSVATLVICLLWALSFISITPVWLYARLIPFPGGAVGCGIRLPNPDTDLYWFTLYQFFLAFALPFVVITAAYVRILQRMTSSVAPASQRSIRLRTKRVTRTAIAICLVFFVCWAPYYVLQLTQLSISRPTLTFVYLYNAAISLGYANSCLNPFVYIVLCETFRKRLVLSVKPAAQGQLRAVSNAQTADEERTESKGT
T4 sequence (Q99705 whole entry): as above

As for `Cc1cccc(C)c1-n1nnnc1[C@H](c1ccccc1)N1CCN(C/C=C/c2ccccc2)CC1` [Compound 1, 1-{[1-(2,6-dimethyiphenyl)-1H-tetrazol-5-yl]phenylmethyl}-4-(3-phenylallyl)piperazine], the IC50 was at most 0.1 µM in experiment [1] (100 nM or less list), at most 100 µM in experiment [1] (100 μM or less list), at most 0.1 µM in experiment [3] (100 nM or less list) and at most 100 µM in experiment [3] (100 μM or less list). Further, the results for the Ki at rat MCH1 receptor [2], at human MCH receptor (100 μM or less list) and on rat MCH1 receptor [4] were at most 100 µM, at most 100 µM and at most 0.1 µM, respectively.

In the case of `COc1cccc([C@@H](c2nnnn2-c2c(C)cccc2C)N2CCN(C/C=C/c3ccccc3)CC2)c1` (racemic) [Compound 77, 1-[[1-(2,6-dimethylphenyl)-1H-tetrazol-5-yl]-(3-methoxyphenyl)methyl]-4-(3-phenylallyl)piperazine], the IC50 in experiment [1] (100 μM or less list) is at most 100 µM; in experiment [3] (100 nM or less list) it was at most 0.1 µM; in experiment [3] (100 μM or less list) it was at most 100 µM. Further, the results for the Ki at rat MCH1 receptor [2], at human MCH receptor (100 μM or less list) and on rat MCH1 receptor [4] were at most 100 µM, at most 100 µM and at most 0.1 µM, respectively.

With `Cc1cccc(C)c1-n1nnnc1[C@H](c1ccc(OCc2ccccc2)cc1)N1CCN(C/C=C/c2ccccc2)CC1` (racemic) [Compound 70, 1-{(4-benzyloxyphenyl)-[1-(2,6-dimethylphenyl)-1H-tetrazol-5-yl]methyl}-4-(3-phenylallyl)piperazine], the IC50 is at most 0.1 µM in experiment [1] (100 nM or less list), at most 100 µM in experiment [1] (100 μM or less list), at most 0.1 µM in experiment [3] (100 nM or less list) and at most 100 µM in experiment [3] (100 μM or less list). The Ki was at most 100 µM on rat MCH1 receptor [2], at most 0.1 µM on human MCH receptor (100 nM or less list), at most 100 µM at human MCH receptor (100 μM or less list) and at most 0.1 µM at rat MCH1 receptor [4].

`Cc1cccc([C@@H](c2nnnn2-c2c(C)cccc2C)N2CCN(C/C=C/c3ccccc3)CC2)c1` (racemic) [Compound 61, 1-{[1-(2,6-dimethylphenyl)-1H-tetrazol-5-yl]-m-tolylmethyl}-4-(3-phenylallyl) piperazine]: the IC50 in experiment [1] (100 μM or less list) and in experiment [3] (100 μM or less list) was at most 100 µM in each case. Further, the Ki was at most 100 µM on rat MCH1 receptor [2], at most 100 µM at human MCH receptor (100 μM or less list) and at most 0.1 µM at rat MCH1 receptor [4].

In the case of `Cc1cccc(C)c1-n1nnnc1[C@H](c1ccc(Cl)c(Cl)c1)N1CCN(C/C=C/c2ccccc2)CC1` (racemic) [Compound 60, 1-{(3,4-dichlorophenyl)-[1-(2,6-dimethylphenyl)-1H-tetrazol-5-yl]methyl}-4-(3-phenylallyl)piperazine], the half-maximal inhibitory concentration (IC50) in experiment [1] (100 μM or less list) and in experiment [3] (100 μM or less list) was at most 100 µM in each case. In addition, the Ki on rat MCH1 receptor [2] was at most 100 µM; on human MCH receptor (100 μM or less list), at most 100 µM; on rat MCH1 receptor [4], at most 0.1 µM.

Take `Cc1cccc(C)c1-n1nnnc1[C@H](c1ccc2ccccc2c1)N1CCN(C/C=C/c2ccccc2)CC1` (racemic) [Compound 62, 1-{[1-(2,6-dimethylphenyl)-1H-tetrazol-5-yl]naphthalen-2-ylmethyl}-4-(3-phenylallyl)piperazine]: the IC50 in experiment [1] (100 μM or less list) is at most 100 µM; in experiment [3] (100 nM or less list), at most 0.1 µM; in experiment [3] (100 μM or less list) it was at most 100 µM. Further, the results for the inhibition constant Ki at rat MCH1 receptor [2], on human MCH receptor (100 μM or less list) and on rat MCH1 receptor [4] were at most 100 µM, at most 100 µM and at most 0.1 µM, respectively.

Consider `Cc1cccc(C)c1-n1nnnc1[C@H](c1ccc(-c2ccccc2)cc1)N1CCN(C/C=C/c2ccccc2)CC1` (racemic) [Compound 64, 1-{biphenyl-4-yl-[1-(2,6-dimethylphenyl)-1H-tetrazol-5-yl]methyl}-4-(3-phenylallyl)piperazine], for which the IC50 in experiment [1] (100 μM or less list) was at most 100 µM; in experiment [3] (100 nM or less list) it was at most 0.1 µM; in experiment [3] (100 μM or less list) it was at most 100 µM. Also, the inhibition constant Ki is at most 100 µM on rat MCH1 receptor [2] and at most 0.1 µM at rat MCH1 receptor [4].

Consider `Cc1cccc(C)c1-n1nnnc1[C@H](c1ccc(Oc2ccccc2)cc1)N1CCN(C/C=C/c2ccccc2)CC1` (racemic) [Compound 76, 1-[[1-(2,6-dimethylphenyl)-1H-tetrazol-5-yl]-(4-phenoxyphenyl)methyl]-4-(3-phenylallyl)piperazine], for which the concentration for half-maximal inhibition (IC50) in experiment [1] (100 μM or less list) was at most 100 µM; in experiment [3] (100 nM or less list) it was at most 0.1 µM; in experiment [3] (100 μM or less list), at most 100 µM. For the same molecule, the values for the Ki at rat MCH1 receptor [2] and at rat MCH1 receptor [4] were at most 100 µM and at most 0.1 µM, respectively.

The IC50 is the concentration needed to halve the response being measured. The term Ki denotes a dissociation constant, usually derived from enzyme kinetics or from competition with a known ligand.
